Data as given in patent publication US12319640B2, “Cyclic diones as herbicidal compounds” (SYNGENTA CROP PROTECTION AG, priority 2019, dated 2025).

Experiments:
Assay in all cases: Glasshouse herbicide test, pre- and post-emergence
Format in all cases: in vivo
[1] = system: Lolium perenne (LOLPE); details: 250 g/h, evaluated after 13 days, five-point scale; for percentage damage caused to the plant, LOLPE POST: post-emergence; for percentage damage caused to the plant, LOLPE PRE: pre-emergence
How it was run: (§1)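 Spraying at 250 g/h took place either pre-emergence (one day after sowing) or post-emergence (after eight days' cultivation). Percentage damage was evaluated 13 days afterwards and binned into five classes, 1=0-19% up to 5=80-100%.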

[2] = system: Echinochloa crus-galli (ECHCG); details: 250 g/h, evaluated after 13 days, five-point scale; for percentage damage caused to the plant, ECHCG POST: post-emergence; for percentage damage caused to the plant, ECHCG PRE: pre-emergence
How it was run: as §1

[3] = system: Avena fatua (AVEFA); details: 250 g/h, evaluated after 13 days, five-point scale; for percentage damage caused to the plant, AVEFA POST: post-emergence; for percentage damage caused to the plant, AVEFA PRE: pre-emergence
How it was run: as §1

[4] = system: Alopecurus myosuroides (ALOMY); details: 250 g/h, evaluated after 13 days, five-point scale; for percentage damage caused to the plant, ALOMY POST: post-emergence; for percentage damage caused to the plant, ALOMY PRE: pre-emergence
How it was run: as §1

[5] = system: Setaria faberi (SETFA); details: 250 g/h, evaluated after 13 days, five-point scale; for percentage damage caused to the plant, SETFA POST: post-emergence; for percentage damage caused to the plant, SETFA PRE: pre-emergence
How it was run: as §1

Structure (SMILES) | percentage damage caused to the plant, LOLPE POST [1] | percentage damage caused to the plant, LOLPE PRE [1] | percentage damage caused to the plant, ECHCG POST [2] | percentage damage caused to the plant, ECHCG PRE [2] | percentage damage caused to the plant, AVEFA POST [3] | percentage damage caused to the plant, AVEFA PRE [3] | percentage damage caused to the plant, ALOMY POST [4] | percentage damage caused to the plant, ALOMY PRE [4] | percentage damage caused to the plant, SETFA POST [5] | percentage damage caused to the plant, SETFA PRE [5]
CC#Cc1cc(C)c(C2C(=O)CC3(CCC(NC(=O)c4ccccn4)CC3)CC2=O)c(C)c1 (stereo not shown) [Compound 2.006] | 5 (5=80-100%) | 5 (5=80-100%) | 5 (5=80-100%) | 5 (5=80-100%) | 5 (5=80-100%) | 4 (4=60-79%) | 5 (5=80-100%) | 5 (5=80-100%) | 5 (5=80-100%) | 5 (5=80-100%)
CC#Cc1cc(C)c(C2C(=O)CC3(CCC(NC(=O)CC#N)CC3)CC2=O)c(C)c1 (stereo not shown) [Compound 2.010] | 5 (5=80-100%) | 5 (5=80-100%) | 5 (5=80-100%) | 5 (5=80-100%) | 5 (5=80-100%) | 5 (5=80-100%) | 5 (5=80-100%) | 5 (5=80-100%) | 5 (5=80-100%) | 5 (5=80-100%)
CC#Cc1cc(C)c(C2C(=O)CC3(CCC(C(=O)N(C)C)CC3)CC2=O)c(C)c1 (stereo not shown) [Compound 1.001] | 5 (5=80-100%) | 5 (5=80-100%) | 5 (5=80-100%) | 5 (5=80-100%) | 5 (5=80-100%) | 5 (5=80-100%) | 5 (5=80-100%) | 5 (5=80-100%) | 5 (5=80-100%) | 5 (5=80-100%)
CC#Cc1cc(C)c(C2C(=O)CC3(CCC(C(=O)NC(=O)c4ccccn4)CC3)CC2=O)c(C)c1 (stereo not shown) [Compound 1.003] | 5 (5=80-100%) | 4 (4=60-79%) | 5 (5=80-100%) | 5 (5=80-100%) | 5 (5=80-100%) | 4 (4=60-79%) | 5 (5=80-100%) | 4 (4=60-79%) | 5 (5=80-100%) | 5 (5=80-100%)
CC#Cc1cc(C)c(C2C(=O)CC3(CCC(C(=O)NOC)CC3)CC2=O)c(C)c1 (stereo not shown) [Compound 1.010] | 5 (5=80-100%) | 5 (5=80-100%) | 5 (5=80-100%) | 5 (5=80-100%) | 5 (5=80-100%) | 3 (3=40-59%) | 4 (4=60-79%) | 3 (3=40-59%) | 5 (5=80-100%) | 5 (5=80-100%)
CC#Cc1cc(C)c(C2C(=O)CC3(CCC(NC(C)=O)C3)CC2=O)c(C)c1 (stereo not shown) [Compound 2.024] | 5 (5=80-100%) | 5 (5=80-100%) | 5 (5=80-100%) | 5 (5=80-100%) | 5 (5=80-100%) | 5 (5=80-100%) | 5 (5=80-100%) | 5 (5=80-100%) | 5 (5=80-100%) | 5 (5=80-100%)
CC#Cc1cc(C)c(C2C(=O)CC3(CCC(NC(=O)c4ccc(OC)nn4)CC3)CC2=O)c(C)c1 (stereo not shown) [Compound 2.014] | 5 (5=80-100%) | 5 (5=80-100%) | 5 (5=80-100%) | 5 (5=80-100%) | 5 (5=80-100%) | 5 (5=80-100%) | 5 (5=80-100%) | 5 (5=80-100%) | 5 (5=80-100%) | 5 (5=80-100%)
